Laboratory results from patent US10076504B2, “Glucagon antagonists” (Ligand Pharmaceuticals, Inc., priority 2014, dated 2018).
Read-outs that look alike come from different tables or passages of the source.

Experiments:
[1] = Pharmacokinetics after oral and IV administration; type: in vivo; settings: IV Dose 1 mg/kg, PO Dose 3 mg/kg; for AUC(0-t) / Cmax / Tmax / clearance / half-life / Vd: plasma; for Vd: read-out: VSS
Procedure: Pharmacokinetics of IIIa were evaluated after both oral and IV administration in mice, rats, dogs, and monkeys.

[2] = Single ascending dose study, safety and tolerability; type: in vivo, human; settings: for Any study drug related TEAE / Gastrointestinal disorders Diarrhoea / Gastrointestinal disorders Nausea / Gastrointestinal disorders Vomiting / Nervous systems disorders Headache: Normal Healthy Volunteers, 6 subjects; for tolerability: single oral doses 2 to 480 mg in NHV, 40 mg in T2DM subjects
Procedure: Oral doses of IIIa were administered to normal healthy volunteers (NHV) and subjects with type 2 diabetes mellitus (T2DM). A single center, randomized, double-blind, placebo-controlled single ascending dose study was done in both NHV (n=48) and T2DM subjects (n=8). Dose escalation only occurred after review of safety and tolerability data from previous dose levels (n=8/cohort; 2-placebo & 6-IIIa). Dosing of the T2DM cohort was initiated only after the equivalent dose had been administered to NHV and safety data had been reviewed. All subjects were administered IIIa in the morning after an overnight fast with the exception of the NHV in the 40 mg cohort. NHV subjects in the 40 mg cohort initially received IIIa in a fasted state. Following a 3 week washout period, IIIa was readministered after breakfast at 40 mg to determine the effects of food consumption on pharmacokinetics.
This was a single center, randomized, double-blind, placebo-controlled single ascending dose study in both normal healthy volunteers (NHV) (n=48) and subjects with type 2 diabetes mellitus (T2DM) (n=8). All subjects were administered Formula IIIa as a solution formulated with Captisol® after an overnight fast with the exception of the NHV in the 40 mg cohort. The NHV 40 mg cohort initially received Formula IIIa in a fasted state. Following a washout period, subjects received 40 mg Formula IIIa after breakfast to explore the effects of food consumption on pharmacokinetics.
In type 2 diabetes mellitus (T2DM), inappropriately elevated levels of glucagon exacerbate hyperglycemia and its associated complications. Not wishing to be bound to a particular theory, it has been observed that antagonism of glucagon action reduces blood glucose levels and hemoglobin A1c in patients with T2DM. The novel, selective, orally bioavailable glucagon receptor antagonist, Formula IIIa (below), was investigated regarding its pharmacokinetics (PK), safety, and pharmacodynamics (PD) in a first-in-human, ascending, single-dose, double blind, placebo-controlled study in normal healthy (NH) and T2DM subjects (NCT01919684).

[3] = NHV and T2DM subjects, single dose

F ([1]; Dog): 54%
F ([1]; Monkey): 21%
F ([1]; Mouse): 47%
F ([1]; Rat): 36%
AUC(0-t) ([1]; Dog): 225000 ng·h/mL
Cmax ([1]; Dog): 10900 ng/mL
Tmax ([1]; Dog): 4 h
clearance ([1]; Dog): 0.07 mL/min/kg
half-life ([1]; Dog): 46 h
Vd ([1]; Dog): 0.24 L/kg
AUC(0-t) ([1]; Monkey): 9850 ng·h/mL
Cmax ([1]; Monkey): 1250 ng/mL
Tmax ([1]; Monkey): 4 h
clearance ([1]; Monkey): 1.13 mL/min/kg
half-life ([1]; Monkey): 16.2 h
Vd ([1]; Monkey): 0.16 L/kg
AUC(0-t) ([1]; Mouse): 16300 ng·h/mL
Cmax ([1]; Mouse): 1710 ng/mL
Tmax ([1]; Mouse): 6 h
clearance ([1]; Mouse): 22.2 mL/min/kg
half-life ([1]; Mouse): 5.9 h
Vd ([1]; Mouse): 0.62 L/kg
AUC(0-t) ([1]; Rat): 7600 ng·h/mL
Cmax ([1]; Rat): 1330 ng/mL
Tmax ([1]; Rat): 2 h
clearance ([1]; Rat): 2.33 mL/min/kg
half-life ([1]; Rat): 10.9 h
Vd ([1]; Rat): 0.3 L/kg
SMILES: Cc1cc(C)c(-c2ccc(NC(=O)[C@H](Cc3ccc(C(=O)NCCS(=O)(=O)O)cc3)c3ccc(-c4ccc(C(C)(C)C)cc4)cc3)cc2)c(C)c1 [IIIa]
cases of hypoglycemia (glucose <60 mg/dL) [2, 3]: no cases of hypoglycemia
serious adverse events [2, 3]: no serious adverse events
Any study drug related TEAE ([2]; 2 mg): 0 (0.0)
Gastrointestinal disorders Diarrhoea ([2]; 2 mg): 0 (0.0)
Gastrointestinal disorders Nausea ([2]; 2 mg): 0 (0.0)
Gastrointestinal disorders Vomiting ([2]; 2 mg): 0 (0.0)
Nervous systems disorders Headache ([2]; 2 mg): 0 (0.0)
Any study drug related TEAE ([2]; 10 mg): 1 (16.7)
Gastrointestinal disorders Diarrhoea ([2]; 10 mg): 0 (0.0)
Gastrointestinal disorders Nausea ([2]; 10 mg): 0 (0.0)
Gastrointestinal disorders Vomiting ([2]; 10 mg): 0 (0.0)
Nervous systems disorders Headache ([2]; 10 mg): 1 (16.7)
Any study drug related TEAE ([2]; 40 mg): 0 (0.0)
Gastrointestinal disorders Diarrhoea ([2]; 40 mg): 0 (0.0)
Gastrointestinal disorders Nausea ([2]; 40 mg): 0 (0.0)
Gastrointestinal disorders Vomiting ([2]; 40 mg): 0 (0.0)
Nervous systems disorders Headache ([2]; 40 mg): 0 (0.0)
Any study drug related TEAE ([2]; 120 mg): 2 (33.3)
Gastrointestinal disorders Diarrhoea ([2]; 120 mg): 0 (0.0)
Gastrointestinal disorders Nausea ([2]; 120 mg): 0 (0.0)
Gastrointestinal disorders Vomiting ([2]; 120 mg): 0 (0.0)
Nervous systems disorders Headache ([2]; 120 mg): 2 (33.3)
Any study drug related TEAE ([2]; 240 mg): 2 (33.3)
Gastrointestinal disorders Diarrhoea ([2]; 240 mg): 0 (0.0)
Gastrointestinal disorders Nausea ([2]; 240 mg): 1 (16.7)
Gastrointestinal disorders Vomiting ([2]; 240 mg): 0 (0.0)
Nervous systems disorders Headache ([2]; 240 mg): 1 (16.7)
Any study drug related TEAE ([2]; 480 mg): 2 (33.3)
Gastrointestinal disorders Diarrhoea ([2]; 480 mg): 1 (16.7)
Gastrointestinal disorders Nausea ([2]; 480 mg): 1 (16.7)
Gastrointestinal disorders Vomiting ([2]; 480 mg): 1 (16.7)
Nervous systems disorders Headache ([2]; 480 mg): 0 (0.0)
study drug related treatment emergent adverse events (TEAE), NHV vs T2DM subjects ([2]; single dose): observed in the NHV but not the T2DM subjects
tolerability [2]: well tolerated
tolerability ([2]; listed as Formula IIIa): well tolerated and considered safe up to the highest dose tested
